Experimental data reported in US11147772B2, “Timed, pulsatile release systems” (Adare Pharmaceuticals, Inc., priority 2005, dated 2021).
Where a name gives a salt, the structure may show the parent alone.

Tests used:
[1] = pH of representative drugs suspended in water; type: physicochemical; settings: for Acidity/Alkalinity: drug suspended in water; for pH when suspended in purified water (range over the concentrations of Table 1): range over tested solid contents
[2] = Drug release (dissolution) testing of TPR beads in two-stage medium, lag-time; type: physicochemical; settings: expected from higher alkalinity, given coating conditions
Method: Dissolution testing of IR beads and enteric coated beads (for acid resistance testing) is conducted with a USP Apparatus 1 (baskets at 100 rpm) or Apparatus 2 (paddles at 50 rpm) in 900 mL of 0.1N HCl at 37° C. while the dissolution testing of TPR beads is conducted in a USP apparatus using a two-stage dissolution medium (first 2 hours in 700 mL of 0.1N HCl at 37° C. followed by dissolution testing at pH=6.8 obtained by the addition of 200 mL of pH modifier). Drug release with time is determined by HPLC on samples pulled at selected intervals.
Drug Release Testing: The drug release profiles were generated by dissolution testing per US Pharmacopoeia method (Apparatus 1 with baskets at 100 rpm or Apparatus 2 with paddles at 50 rpm) using 700 mL of p H 1.2 buffer for 2 hours followed by testing in 900 mL of pH 6.8 for the remaining time-points). The IR and enteric-coated beads were tested in 900 mL of 0.1N HCl for 1 and 1.5 hrs, respectively. The samples pulled at different time-points were quantified by HPLC.

[3] = drug concentration (solid content) 0.2 mg/mL in water
[4] = drug concentration (solid content) 2.0 mg/mL in water
[5] = drug concentration (solid content) 20 mg/mL in water
[6] = drug concentration (solid content) 0.1 mg/mL in water
[7] = drug concentration (solid content) 1.0 mg/mL in water
[8] = drug concentration (solid content) 10 mg/mL in water

| Compound | pH of Solution/Suspension [1, 3] | pH of Solution/Suspension [1, 4] | pH of Solution/Suspension [1, 5] | Acidity/Alkalinity [1] | pH when suspended in purified water (range over the concentrations of Table 1) [1] | pH of Solution/Suspension [1, 6] | pH of Solution/Suspension [1, 7] | pH of Solution/Suspension [1, 8] | lag time relative to nizatidine [2] |
| --- | --- | --- | --- | --- | --- | --- | --- | --- | --- |
| CC(C)NCC(O)COc1cccc2ccccc12 (stereo not shown) [Propranolol Hydrochloride] | pH = 5.7 | pH = 6.0 | pH = 6.5 | Acidic (exhibiting a pH of 7.0, or less, when suspended in water at a solid content of 2 mg/mL is designated as an acidic drug) | 5.7-6.5 |  |  |  |  |
| CNC(=C[N+](=O)[O-])NCCSCc1csc(CN(C)C)n1 [Nizatidine] | pH = 6.5 | pH = 7.4 | pH = 8.7 | Alkaline (an API exhibiting a pH of 7.0, or greater, is designated as an alkaline drug) | 6.5-8.7 |  |  |  |  |
| CN(C)CCC=C1c2ccccc2C=Cc2ccccc21 [Cyclobenzaprine Hydrochloride] |  |  |  | Acidic (exhibiting a pH of 7.0, or less, when suspended in water at a solid content of 2 mg/mL is designated as an acidic drug) |  | pH = 6.1 | pH = 6.5 | pH = 6.7 |  |
| CC(C)NCC(O)COc1ccc(CC(N)=O)cc1 (stereo not shown) [Atenolol] |  |  |  |  | 7.9-11.0 | pH = 7.9 | pH = 10.9 | pH = 11.0 | shorter lag time than nizatidine |
